Data as given in ChEMBL document CHEMBL4190162, “SAR and identification of 2-(quinolin-4-yloxy)acetamides as Mycobacterium tuberculosis cytochrome bc1 inhibitors” (Medchemcomm, 2016).
In brackets after ≈: the same amount, converted by molar mass.

How the values were obtained:
[1] = tested on: Mycobacterium tuberculosis; assay: Antimycobacterial activity against Mycobacterium tuberculosis H37Rv harboring cyd deletion mutant measured after 2 weeks by microplate alamar blue assay; type: functional
[2] = tested on: Mycobacterium tuberculosis H37Rv; assay: Inhibition of QCR1 A317V mutant in Mycobacterium tuberculosis H37Rv harboring cyd deletion mutant assessed as reduction in bacterial growth relative to wild-type QCR1
[3] = tested on: Mycobacterium tuberculosis H37Rv; assay: Inhibition of QCR5 M342I mutant in Mycobacterium tuberculosis H37Rv harboring cyd deletion mutant assessed as reduction in bacterial growth relative to wild-type QCR5
[4] = tested on: Mycobacterium tuberculosis H37Rv; assay: Inhibition of QCR4 A396T mutant in Mycobacterium tuberculosis H37Rv harboring cyd deletion mutant assessed as reduction in bacterial growth relative to wild-type QCR4
[5] = tested on: Mycobacterium tuberculosis H37Rv; assay: Inhibition of QCR3 W312G mutant in Mycobacterium tuberculosis H37Rv harboring cyd deletion mutant assessed as reduction in bacterial growth relative to wild-type QCR3
[6] = tested on: Mycobacterium tuberculosis H37Rv; assay: Inhibition of QCR7 S182T mutant in Mycobacterium tuberculosis H37Rv harboring cyd deletion mutant assessed as reduction in bacterial growth relative to wild-type QCR7
[7] = tested on: Mycobacterium tuberculosis H37Rv; assay: Inhibition of QCR2 M342T mutant in Mycobacterium tuberculosis H37Rv harboring cyd deletion mutant assessed as reduction in bacterial growth relative to wild-type QCR2
[8] = tested on: Mycobacterium tuberculosis H37Rv; assay: Inhibition of QCR6 A317T mutant in Mycobacterium tuberculosis H37Rv harboring cyd deletion mutant assessed as reduction in bacterial growth relative to wild-type QCR6

Structure (SMILES)	MIC [1] [µM]	fold change (FC) [2]	fold change (FC) [3]	fold change (FC) [4]	fold change (FC) [5]	fold change (FC) [6]	fold change (FC) [7]	fold change (FC) [8]
COc1ccc2nc(C)cc(OCC(=O)NCCc3ccccc3)c2c1	4.45 (≈ 1.56 µg/mL)							
COc1ccccc1NC(=O)COc1cc(C)nc2ccc(Br)cc12	0.5 (≈ 0.201 µg/mL)							
COc1ccc2nc(C)cc(OCC(=O)NCc3ccccc3)c2c1	0.59 (≈ 0.198 µg/mL)	> 250	3.9	3.9	47	15.7	3	23.5
COc1ccccc1NC(=O)COc1cc(C)nc2ccc(C(F)(F)F)cc12	>128							
COc1ccc2nc(C)cc(OCC(=O)Nc3ccccc3Cl)c2c1	<0.067							
COc1ccc2nc(C)cc(OCC(=O)Nc3ccc(Cl)cc3)c2c1	0.2 (≈ 0.0714 µg/mL)							
COCCNC(=O)COc1cc(C)nc2ccc(OC)cc12	41.06 (≈ 12.5 µg/mL)							
COc1cc(NC(=O)COc2cc(C)nc3ccc(OC)cc23)cc(OC)c1	2.04 (≈ 0.78 µg/mL)							
COc1ccc(NC(=O)COc2cc(C)nc3ccc(OC)cc23)cc1	0.14 (≈ 0.0493 µg/mL)	63.9	3.1	3.1	24.5	15.9	4.1	24.5
COc1ccccc1NC(=O)COc1cc(C)nc2ccc(Cl)cc12	1.09 (≈ 0.389 µg/mL)							
COc1ccc(OC)c(CCNC(=O)COc2cc(C)nc3ccc(OC)cc23)c1	7.62 (≈ 3.13 µg/mL)							
c1ccc(Cn2cnc3c(-c4ccco4)nccc32)cc1	0.31 (≈ 0.0853 µg/mL)	> 81	20.2	20.2	> 81	61.3	20.2	10.1
CCCCCNC(=O)COc1cc(C)nc2ccc(OC)cc12	0.95 (≈ 0.301 µg/mL)							
C#CCNC(=O)COc1cc(C)nc2ccc(OC)cc12	21.98 (≈ 6.25 µg/mL)							
COc1ccc2nc(C)cc(OCC(=O)NCCc3ccc(OC)c(OC)c3)c2c1	90.13 (≈ 37 µg/mL)							
COc1ccccc1NC(=O)COc1cc(C)nc2ccccc12	7.13 (≈ 2.3 µg/mL)							

Structure (SMILES)	MIC [1] [µM]	fold change (FC) [2]	fold change (FC) [3]	fold change (FC) [4]	fold change (FC) [5]	fold change (FC) [6]	fold change (FC) [7]	fold change (FC) [8]
COc1ccc2nc(C)cc(OCC(=O)Nc3ccccc3)c2c1	0.12 (≈ 0.0387 µg/mL)	> 1250	1.8	5	235	19.5	3.8	30
COc1ccc(NC(=O)COc2cc(C)nc3ccc(OC)cc23)c(OC)c1	0.18 (≈ 0.0688 µg/mL)							
COc1ccc2nc(C)cc(OCC(=O)Nc3ccc4c(c3)OCO4)c2c1	0.19 (≈ 0.0696 µg/mL)	134	1.4	5.6	17.1	32.9	2.1	32.9
COc1cccc(NC(=O)COc2cc(C)nc3ccc(OC)cc23)c1	0.57 (≈ 0.201 µg/mL)							
COc1ccc2nc(C)cc(OCC(=O)Nc3ccc(Br)cc3)c2c1	0.17 (≈ 0.0682 µg/mL)							
COc1ccc2nc(C)cc(OCC(=O)Nc3ccccc3OC)c2c1	0.14 (≈ 0.0493 µg/mL)	46.9	6.1	4.1	46.9	15.9	1.4	24.5
COc1ccc2nc(C)cc(OCC(=O)NCCc3ccc4c(c3)OCO4)c2c1	3.04 (≈ 1.2 µg/mL)							
COc1ccccc1NC(=O)COc1cc(C)nc2ccc(C)cc12	0.45 (≈ 0.151 µg/mL)							
COc1ccc2nc(C)cc(OCC(=O)Nc3cccc(Br)c3)c2c1	0.37 (≈ 0.148 µg/mL)							
CC(=O)NC[C@H]1CN(c2ccc(N3CCOCC3)c(F)c2)C(=O)O1 [LINEZOLID]	1.56 (≈ 0.526 µg/mL)							
COc1ccc2nc(C)cc(OCC(=O)Nc3ccc(OC)c(OC)c3)c2c1	3.14 (≈ 1.2 µg/mL)							
COc1ccc2nc(C)cc(OCC(=O)NCCCc3ccccc3)c2c1	2.14 (≈ 0.78 µg/mL)							
COc1ccc2nc(C)cc(OCC(=O)NCc3ccc4c(c3)OCO4)c2c1	<0.063	> 130	> 12.5	> 6.3	> 25	> 95.8	> 12.5	> 32.5
Nc1ccc(C(=O)O)c(O)c1 [AMINOSALICYLIC ACID]	0.6 (≈ 0.0919 µg/mL)	0.5	0.5	0.3	0.5	0.5	0.3	0.2
COc1ccc2nc(C)cc(OCC(=O)Nc3ccc(-c4ccccc4)cc3)c2c1	0.12 (≈ 0.0478 µg/mL)							
COc1ccc2nc(C)cc(OCC(=O)Nc3ccc(C)cc3)c2c1	<0.071	> 32.5	1	> 2	> 16.3	> 16.3	> 2	> 12.5
